In PMC7730206, “2-Deoxy-D-glucose Promotes Buforin IIb-Induced Cytotoxicity in Prostate Cancer DU145 Cells and Xenograft Tumors” (Molecules, 2020):
“Also recorded” adds a separate entry of the source.

Columns and labels:
[1] = tested on: Bcl-2, Bak, Bax, cytochrome c, caspase 3 in DU145 cells; assay: Western blot of apoptosis-related proteins; type: cell-based, human; details: 2 mM 2-DG 12 h and/or 2 μM buforin IIb 12 h
Procedure: DU145 cells were treated with 2-DG (2 mM) for 12 h, then treated with or without buforin IIb (2 μM) for 12 h. The cells were lysed on ice for 30 min in RIPA lysis buffer, and the lysates were centrifuged at 12,000× g for 10 min at 4 °C. The supernatant was collected, separated by 12% sodium dodecyl sulfate-polyacrylamide gel electrophoresis (SDS-PAGE), and transferred onto a polyvinylidene difluoride (PVDF) membrane. After blocking with 5% skim milk in PBS, the PVDF membrane incubated with primary antibodies against Bcl-2, Bak, Bax, cytochrome C, caspase 3, and β-actin overnight at 4 °C, followed by incubating with appropriate secondary antibodies. After washing, bands were visualized by using ECL detection system according to the manufacturer’s instructions.

[2] = tested on: DU145 cells; assay: Annexin V-FITC/PI apoptosis flow cytometry; type: cell-based, human
Procedure: DU145 cells were seeded (3 × 10^5 cells/mL) into 6-well plates and treated with buforin IIb (2 μM) and 2-DG (2 mM) alone and in combination for 24 h. After collecting and washing with PBS, the cells were re-suspended in 500 μL of binding buffer, stained with FITC-conjugated Annexin V and PI, and incubated on ice in the dark for 10 min. The stained cells were analyzed by flow cytometry, and the percentage of apoptotic cells was calculated using Cell Quest software.

[3] = tested on: DU145 xenograft tumors; assay: DU145 xenograft tumor experiment; type: in vivo, BALB/c nude mice; details: buforin IIb 5 mg/kg tail vein, 2-DG 400 mg/kg oral gavage, days 1, 2, 3, 6, 9; tumor weight on day 12 vs PBS; n = 5 per group
Text: Male BALB/c nude mice (4-6 weeks old) were obtained from the Model Animal Research Center of Nanjing University. All of the animal experiments were approved by the Institutional Animal Care and Use Committee (IACUC) of the Nanjing Normal University and Jiangsu Association for Laboratory Animal Science. BALB/c nude mice were subcutaneously injected with 3 × 10^6 DU145 cells in the right axillary region. When the tumor volume reached 75 mm^3, nude mice were randomly divided into the following four groups (n = 5 per group): PBS, buforin IIb (5 mg/kg), 2-DG (400 mg/kg), and combination group (5 mg/kg buforin IIb + 400 mg/kg 2-DG). Buforin IIb was injected through the tail vein of mice and 2-DG was administered via oral gavage on days 1, 2, 3, 6, and 9. Body weight and tumor volume were measured three times a week. Mice were sacrificed by isoflurane inhalation followed by cervical dislocation. The tumors were excised and assessed. Tumor volume was calculated using the formula V = ab^2/2, where 'a' and 'b' are the tumor dimensions at the longest and widest points, respectively. On day 12, tumor tissues were collected and weighed. […] PCNA and TUNEL positive cells were quantified by measuring pixels in 10 consecutive fields at 40× magnification. Positive cells were scored manually.

[4] = tested on: DU145 cells; assay: L-lactate production; type: cell-based, human; details: 2 mM 2-DG 24 h; 2 μM buforin IIb 12 h; combination: 2-DG pretreatment 12 h then buforin IIb 12 h; lactate in medium
Procedure: (§1) Cells were seeded at approximately 3 × 10^5 cells/mL in 6-well plates and treated with 2-DG (2 mM) alone for 24 h and buforin IIb alone (2 μM) or both for 12 h. After centrifugation, the culture medium and cells were collected to estimate the L-lactate and ATP content using the ATP content assay kit (Solarbio, Beijing, China) and L-lactate assay kit (Jiancheng Bioengineering, Nanjing, China) according to the manufacturer’s protocol. […] The collected cells were subjected to ultrasonic disruption and centrifuged at 8000× g for 10 min at 4 °C to collect the supernatant for intracellular ATP detection. Creatine kinase catalyzes the production of phosphocreatine from creatine and ATP. The level of ATP was determined by detecting the phosphocreatine content though the colorimetric method of phosphomolybdic acid at 700 nm. Six replicates were performed for each group, and the experiments were repeated three times to confirm the results.

[5] = tested on: DU145 cells; assay: Intracellular ATP level; type: cell-based, human; details: 2 μM buforin IIb 12 h
Procedure: as §1

[6] = tested on: prostate cancer cell line DU145; details: 1 mM 2-DG alone; ref 28 (Sahra et al. 2010); cited from earlier work
Text: Glycolysis inhibitors have been studied extensively in recent years as a group of compounds with a potential anticancer activity. This is associated with increasing knowledge of metabolic disorders in cancer cells. One difference between cancer cells and normal cells is that the metabolism of cancer cells is reprogrammed to generate energy from aerobic glycolysis instead of oxidative phosphorylation, which affects mitochondrial function. One effective anticancer strategy is to combine mitochondrial and antiglycolytic drugs with different molecular targets, which may elicit synergistic e ...

[7] = tested on: DU145 cells; assay: Cell cycle analysis (PI staining, FACS); type: cell-based, human; details: 2-DG 2 mM, buforin IIb 2 μM, alone or in combination, 24 h; for S/G2 population: PBS control 46.23%; for G0/G1 population (%G1): PBS control 53.7%
Procedure: Cell cycle analysis was performed using the Cell Cycle Analysis Kit. Briefly, cells were seeded into 6-well culture plates at a density of 3 × 10^5 cells/mL. After treatment with 2-DG (2 mM) and buforin IIb (2 μM) alone or in combination for 24 h, cells were digested by 0.25% trypsin without EDTA, fixed in 70% cold ethanol for 5 h at 4 °C, and then stained with propidium iodide (PI) and RNase A solution for 30 min at 37 °C in the dark. The cell distribution across the cell cycle was analyzed with a FACS Vantage SE flow cytometer.

[8] = tested on: DU145 cells; assay: Mitochondrial membrane potential (JC-1, flow cytometry); type: cell-based, human; details: for effect on Δψm (JC-1 green/red fluorescence ratio, words): 2 mM 2-DG, 2 μM buforin IIb 12 h
Procedure: The JC-1 Assay Kit was used to measure changes in mitochondrial membrane potential. Briefly, cells (5 × 10^5 cells/mL) were seeded into 6-well plates and treated with 2-DG (2 mM) for 12 h, then treated with or without buforin IIb (2 μM) for 12 h. DU145 cells were collected, washed in PBS, and incubated with 10 μg/mL JC-1 for 30 min. The cells were then collected by centrifugation and analyzed by flow cytometry. The red fluorescence indicated JC-1 aggregates, whereas green fluorescence indicated JC-1 monomers. Aggregated JC-1 (red fluorescence) indicates a high membrane potential, whereas monomer JC-1 (green fluorescence) indicates a membrane collapse.

[9] = tested on: normal prostatic epithelial WPMY-1 cell line; assay: CCK-8 cell viability assay, WPMY-1; type: cell-based
Procedure: (§2) Cells were seeded in 96-well plates at a density of 1 × 10^5 cells/mL in medium, and then treated with different concentrations of buforin IIb and 2-DG alone or in combination for 24 h. After treatment, 10 μL CCK-8 was added to each well, and the plates were incubated in the dark at 37 °C for 2 h. Absorbance at 450 nm was measured using a […]1 multifunction microplate reader. Each experiment was performed in triplicate, and cell viability was expressed as a percentage of the control. The drug-drug interactions between buforin IIb and 2-DG were evaluated using the combination index (CI) described by Chou and Talalay, and calculated using Compusyn software (Biosoft). CI values < 1, = 1 or > 1 indicated synergy, additivity, or antagonism, respectively.

[10] = tested on: DU145 cells; assay: EdU incorporation assay (cell proliferation); type: cell-based, human; details: buforin IIb 2 μM, alone or in combination, 24 h
Procedure: Cultured cells were plated in 12-well plates at a density of 2 × 10^5 cells/mL and treated with buforin IIb (2 μM) and 2-DG (2 mM) alone and in combination for 24 h. Cells were then incubated with in medium containing EdU (10 μM) for 2 h, fixed with 4% paraformaldehyde for 15 min, and permeabilized with 0.2% Triton X-100 for 15 min. Cells were then incubated with EdU staining cocktail at room temperature in the dark for 30 min. After washing with PBS, cell nuclei were stained with DAPI at a concentration of 10 μg/mL for 15 min. More than five images of each well were acquired by fluorescence microscope, and the percentage of EdU-positive cells was evaluated.

[11] = tested on: DU145 cells; assay: ROS assay (H2DCFDA, flow cytometry); type: cell-based, human; details: 2 mM 2-DG 12 h, with or without 2 μM buforin IIb 6 h; combination compared with 2 μM buforin alone, p < 0.001
Procedure: Intracellular ROS level was measured by detecting the fluorescence intensity of the peroxide sensitive fluorescent probe H2DCFDA. Briefly, DU145 cells (1 × 10^5 cells/mL) were seeded into 24-well plates and treated with 2-DG (2 mM) for 12 h, then treated with or without buforin IIb (2 μM) for 6 h, followed by incubation with 10 μM H2DCFDA for 30 min in the dark. The fluorescence intensity was measured at 488 nm by flow cytometry to evaluate the production of ROS.

[12] = tested on: mouse erythrocytes; assay: Hemolytic activity assay; type: cell-based; details: mouse RBCs 4% (v/v), 30 min, 37 °C, absorbance 570 nm; different concentrations
Procedure: The hemolytic assay was conducted using mouse red blood cells (RBCs) as the method described previously. Briefly, erythrocytes were isolated by centrifugation at 1000× g for 10 min, washed three times with PBS, and resuspended at a final concentration of 4% (v/v). After incubating cells with 2-DG and buforin IIb alone or in combination at different concentrations for 30 min at 37 °C, the mixture was centrifuged at 1000× g for 5 min to obtain the supernatant. A volume of 100 μL of supernatant was removed to a new 96-well plate and the absorbance was measured at 570 nm. PBS and 0.1% Triton X-100 were used as agents for 0 and 100% hemolysis, respectively. The percentage of hemolysis was calculated as follows: (Asample − APBS)/(ATritonX-100 − APBS) × 100%, where A is the absorbance. Data are presented as the mean ± standard error of the mean (SEM) of at 4–6 independent experiments.

[13] = tested on: prostate cancer cell line DU145; assay: CCK-8 cell viability assay, DU145; type: cell-based, human
Procedure: as §2

With `O=CC[C@@H](O)[C@H](O)[C@H](O)CO` [2-DG, 2-Deoxy-D-glucose] as the molecule, how does the “Bcl-2 family protein levels” value [1] read?
Its value is “downregulated Bcl-2 and upregulated Bak”.

What about the “cytochrome c and caspase 3” value [1] of the same molecule?
The value was “did not promote the release of cytochrome c from mitochondria or activate caspase 3”.

And the “induction of apoptosis” value ([2]; 2-DG alone (2 mM) compared with PBS control)?
The value was “did not induce DU145 cell apoptosis”.

What about the “tumor growth inhibition rate” value [3] of the same molecule?
The value was 39.53%.

And the “lactate production, % of that in the control” value [4]?
The value was “approximately 60%”.

And the activity at 2000 µM ([5]; Homo sapiens, DU-145, 2 mM 2-DG 24 h, read-out: ATP levels, % of control levels)?
Its activity at 2000 µM is 70%.

And the “effect on cell viability and apoptosis in DU145 cells” value [6]?
Its value is “almost no effect on cell viability and apoptosis”.

And the “%G2” value ([7]; PBS 8.15)?
Its value is 7.2%.

What about the “%S” value ([7]; PBS 38.08) of the same molecule?
The value was 28.05%.

What about the S/G2 population [7] of the same molecule?
Its S/G2 population is 35.25%.

What about the “G0/G1 population (%G1)” value [7] of the same molecule?
Its value is 64.76%.

And the “effect on Δψm (JC-1 green/red fluorescence ratio, words)” value [8]?
Its value is “no effect on Δψm”.

What about the “effect on mitochondrial Δψm and ROS production” value ([8]; 2-DG (2 mM) alone) of the same molecule?
Its value is “no effect on mitochondrial Δψm and ROS production”.

What about the “cytotoxicity against WPMY-1 cells” value ([9]; 2 mM 2-DG and 2 μM buforin IIb alone or in combination) of the same molecule?
The value was “no significant cytotoxicity”.

What about the “inhibition of viability of WPMY-1 cells” value ([9]; 4 mM 2-DG and 4 μM buforin IIb alone or in combination) of the same molecule?
Its value is “No significant inhibition of viability”.

What about the “effect on viability of WPMY-1 cells” value ([9]; all tested concentrations) of the same molecule?
Its value is “no effect on the viability”.

What about the inhibition at 2000 µM ([10]; Homo sapiens, DU-145, 2-DG 2 mM, read-out: inhibition of cell proliferation (rate)) of the same molecule?
The inhibition at 2000 µM was 14%.

What about the “ROS, H2DCFDA fluorescence intensity” value [11] of the same molecule?
The value was “no effect on H2DCFDA fluorescence intensity”.

And the “hemolytic activity” value [12]?
Its value is “no hemolytic activity”.

What about the “effect on DU145 cell viability / growth” value ([13]; 2 mM 2-DG alone) of the same molecule?
The value was “did not inhibit DU145 cell growth significantly; also recorded: no significant effect on cell viability and apoptosis”.

And the IC50 ([13]; Homo sapiens, DU-145, CCK8 assay, 24 h, data not shown)?
Its IC50 is 12 mM.

Which “Bcl-2 family protein levels” value [1] does the source give for Buforin IIb here?
Its value is “downregulated Bcl-2 and upregulated Bak”.

And the “cytochrome c and caspase 3” value [1]?
Its value is “increased cytochrome c levels and induced the cleavage of procaspase 3”.

And the apoptosis ([2]; 2 μM buforin IIb alone or with 2 mM 2-DG, 24 h, Annexin V/PI FACS)?
Its apoptosis is 21.45%.

And the “lactate production, % of that in the control” value [4]?
The value was ~80%.

And the “ATP levels, % of control levels” value ([5]; 2 mM 2-DG 24 h)?
The value was 30%.

And the S/G2 population [7]?
Its S/G2 population is 30.06%.

What about the “G0/G1 population (%G1)” value [7] of the same molecule?
Its value is 69.94%.

And the “effect on Δψm (JC-1 green/red fluorescence ratio, words)” value [8]?
The value was “increased the green/red fluorescence ratio”.

What about the “inhibition of cell proliferation (rate)” value ([10]; 2-DG 2 mM) of the same molecule?
The value was 53%.

And the “inhibition of DU145 cell viability” value ([13]; 2 μM buforin IIb alone or with 2 mM 2-DG, 24 h, CCK-8)?
Its value is 25%.
